{"source": "patent US4973472A", "about": "“Dental plaque inhibitor” (Senju Pharmaceutical Col., Ltd., priority 1988, dated 1990)", "key": {"Streptococcus mutans": {"test_system": "Streptococcus mutans", "test": "Prevention of the adhesion of tooth decaying bacteria to the human tooth", "format": "cell-based, Streptococcus mutans ATCC 330402", "settings": "0.5% Substance 1; BHI medium with 5% sucrose; 37° C., 6 hours; scanning electron microscope x 4,000", "description": "Two test tubes were respectively filled with BHI medium containing 5% of sucrose and a sterilized human tooth was suspended in each of the tubes using a stainless steel wire. After Substance 1 was added to one of the tubes at a final concentration of 0.5%, a culture of Streptococcus mutans ATCC 330402 grown in BHI medium at 37° C. for 18 hours was added to both tubes at a final concentration of 10^8 CFU/ml. The tubes were further incubated at 37° C. for 6 hours, at the end of which time the teeth were taken out, rinsed and observed with a scanning electron microscope at a magnification of x 4,000."}, "GTase": {"test_system": "GTase", "test": "GTase-inhibitory activity (formation of insoluble glucan from sucrose, turbidity at 550 nm)", "format": "biochemical, Streptococcus mutans ATCC 33402", "settings": "for Optical density of reaction system: 550 nm", "description": "The enzyme GTase was prepared from Streptococcus mutans and using sucrose as the substrate, the inhibitory effect of the test substances on the formation of insoluble glucan was determined.\nThe preparation of GTase was carried out in accordance with the description in Methods for Isolation of Microorganisms (Kazue Yamazato (ed.): R&D Planning), page 733, (1) Preparation of cell-free GTase. Thus, Streptococcus mutans ATCC 33402 was cultured (inoculum size 1%) in brain heart infusion broth (Difco; hereinafter referred to as BHI medium) under stationary conditions at 37° C. for 18 hours and the resulting culture was centrifuged at 4,000 rpm for 10 minutes. The supernatant was taken and ammonium sulfate was added at a final concentration of 60% saturation. The mixture was gently stirred at 4° C. overnight for salting-out and the precipitate was dissolved in 5 mM potassium phosphate buffer (pH 6.5). This solution was then dialyzed against the same buffer at 4° C. overnight to give a crude GTase preparation.\nThe assay of GTase activity was carried out by the method described in Methods for Isolation of Microorganisms (ibid), page 733, (2) Assay of activities in microbial culture filtrates with minor modification. Thus, the solution prepared as per Tables 1 and 2 was used as a test solution and the corresponding solution prepared by using the same quantity of distilled water in lieu of the test substance solution in otherwise the same composition was used as a control solution. Test tubes were filled with 5 ml aliquots of the test solution or the control solution and allowed to stand in upright position at 37° C. for 16 hours. After completion of the reaction each tube was shaken well to agitate the reaction system and the optical density at 550 nm was measured to find the degree of turbidity. The inhibitory activity of the test substance against GTase was calculated as a percentage with the turbidity of the control reaction system being taken as 100%. […]\nAmong the substances falling under the purview of the present invention, those mentioned in Table 3 (Substances 1 through 6) were used as test substances.\nFor each of the substances mentioned in Table 3, the GTase activity at the test substance concentration of 0.5% in the reaction system was assayed to estimate the inhibitory activity of the test substance.\nFor Substance 1, GTase activity was assayed in the reaction system corresponding to each concentration of the test substance in the range of 0.01% to 1.0% and to obtain correlation between inhibitory activity and test substance concentration.\nFor Substance 1 at a concentration of 0.5%, either aqueous sodium hydroxide solution or hydrochloric acid was added to portions of the substrate-test substance solution shown in Table 1 to prepare solutions adjusted to pH 4, 5, 6, 7 and 8, respectively, and using each of these solutions, the reaction was carried out at the corresponding pH. The GTase activity at each pH was assayed and the correlation between reaction system pH and inhibitory activity was studied."}, "[1]": {"settings": "Table 4, 0.5% test substance, 37° C., 16 hours, buffer pH 6.5"}, "[2]": {"settings": "Table 4, 0.5% test substance, 37° C., 16 hours, buffer pH 6.5, control 0.55"}}}
{"smiles": "Cc1c(C)c2c(c(C)c1OP(=O)(O)OC1=C(O)C(C(O)CO)OC1=O)CCC(C)(CCCC(C)CCCC(C)CCCC(C)C)O2", "note": "(centres unmarked) [Substance 1]", "values": [{"measurement": "adherent bacterial cells and colonies on the tooth surface (FIG. 2)", "setting": "Streptococcus mutans", "result": "neither adherent bacterial cells nor colonies"}, {"measurement": "adhesion of bacterial cells and subsequent formation of colonies on the tooth surface", "setting": "Streptococcus mutans", "result": "completely inhibited"}, {"measurement": "inhibitory activity, dependence on concentration", "setting": "GTase; 0.01% to 1.0%", "result": "concentration-dependent"}, {"measurement": "inhibition rates", "setting": "GTase; 0.075% and higher concentrations", "result": "not less than 90%"}, {"measurement": "formation of insoluble glucan", "setting": "GTase; 0.5%, pH range where GTase was active", "result": "very slight"}, {"measurement": "% Inhibition", "setting": "GTase; [1]", "result": 92.7, "unit": "%"}, {"measurement": "Optical density of reaction system", "setting": "GTase; [2]", "result": 0.04}, {"measurement": "% Inhibition", "setting": "GTase; Table 5, concentration 0.01%", "result": 59.7, "unit": "%"}, {"measurement": "Optical density of reaction system", "setting": "GTase; Table 5, concentration 0.01%, control 0.496", "result": 0.20}, {"measurement": "% Inhibition", "setting": "GTase; Table 5, concentration 0.025%", "result": 59.7, "unit": "%"}, {"measurement": "Optical density of reaction system", "setting": "GTase; Table 5, concentration 0.025%, control 0.496", "result": 0.20}, {"measurement": "% Inhibition", "setting": "GTase; Table 5, concentration 0.05%", "result": 59.7, "unit": "%"}, {"measurement": "Optical density of reaction system", "setting": "GTase; Table 5, concentration 0.05%, control 0.496", "result": 0.20}, {"measurement": "% Inhibition", "setting": "GTase; Table 5, concentration 0.075%", "result": 89.9, "unit": "%"}, {"measurement": "Optical density of reaction system", "setting": "GTase; Table 5, concentration 0.075%, control 0.496", "result": 0.05}, {"measurement": "% Inhibition", "setting": "GTase; Table 5, concentration 0.1%", "result": 96.0, "unit": "%"}, {"measurement": "Optical density of reaction system", "setting": "GTase; Table 5, concentration 0.1%, control 0.496", "result": 0.02}, {"measurement": "% Inhibition", "setting": "GTase; Table 5, concentration 0.25%", "result": 96.0, "unit": "%"}, {"measurement": "Optical density of reaction system", "setting": "GTase; Table 5, concentration 0.25%, control 0.496", "result": 0.02}, {"measurement": "% Inhibition", "setting": "GTase; Table 5, concentration 0.5%", "result": 96.0, "unit": "%"}, {"measurement": "Optical density of reaction system", "setting": "GTase; Table 5, concentration 0.5%, control 0.496", "result": 0.02}, {"measurement": "% Inhibition", "setting": "GTase; Table 5, concentration 1.0%", "result": 96.0, "unit": "%"}, {"measurement": "Optical density of reaction system", "setting": "GTase; Table 5, concentration 1.0%, control 0.496", "result": 0.02}, {"measurement": "Optical density", "setting": "GTase; Table 6, pH 4, 0.5% test substance, control 0.08", "result": 0.05}, {"measurement": "% Inhibition", "setting": "GTase; Table 6, pH 5, 0.5% test substance", "result": 71.4, "unit": "%"}, {"measurement": "Optical density", "setting": "GTase; Table 6, pH 5, 0.5% test substance, control 0.35", "result": 0.06}, {"measurement": "% Inhibition", "setting": "GTase; Table 6, pH 6, 0.5% test substance", "result": 91.9, "unit": "%"}, {"measurement": "Optical density", "setting": "GTase; Table 6, pH 6, 0.5% test substance, control 0.62", "result": 0.05}, {"measurement": "% Inhibition", "setting": "GTase; Table 6, pH 7, 0.5% test substance", "result": 94.9, "unit": "%"}, {"measurement": "Optical density", "setting": "GTase; Table 6, pH 7, 0.5% test substance, control 0.59", "result": 0.03}, {"measurement": "Optical density", "setting": "GTase; Table 6, pH 8, 0.5% test substance, control 0.05", "result": 0.02}, {"measurement": "inhibition rates", "setting": "GTase; concentration of 0.01%", "result": "about 60%"}, {"measurement": "inhibition rate", "setting": "GTase; pH 5, 0.5%", "result": "about 70%"}, {"measurement": "inhibition rate", "setting": "GTase; pH 6 and 7, 0.5%", "result": "not less than 90%"}]}
{"smiles": "Cc1cc(OP(=O)(O)OC2=C(O)C(C(O)CO)OC2=O)c(C)c2c1OC(C)(CCCC(C)CCCC(C)CCCC(C)C)CC2", "note": "(centres unmarked) [Substance 2]", "values": [{"measurement": "% Inhibition", "setting": "GTase; [1]", "result": 94.5, "unit": "%"}, {"measurement": "Optical density of reaction system", "setting": "GTase; [2]", "result": 0.03}]}
{"smiles": "Cc1c(OP(=O)(O)OC2=C(O)C(C(O)CO)OC2=O)cc2c(c1C)OC(C)(CCCC(C)CCCC(C)CCCC(C)C)CC2", "note": "(centres unmarked) [Substance 3]", "values": [{"measurement": "% Inhibition", "setting": "GTase; [1]", "result": 94.5, "unit": "%"}, {"measurement": "Optical density of reaction system", "setting": "GTase; [2]", "result": 0.03}]}
{"smiles": "Cc1cc(OP(=O)(O)OC2=C(O)C(C(O)CO)OC2=O)cc2c1OC(C)(CCCC(C)CCCC(C)CCCC(C)C)CC2", "note": "(centres unmarked) [Substance 4]", "values": [{"measurement": "% Inhibition", "setting": "GTase; [1]", "result": 94.5, "unit": "%"}, {"measurement": "Optical density of reaction system", "setting": "GTase; [2]", "result": 0.03}]}
{"smiles": "CC(C)CCCC(C)CCCC(C)CCCC1(C)CCc2cc(OP(=O)(O)OC3=C(O)C(C(O)CO)OC3=O)ccc2O1", "note": "(centres unmarked) [Substance 5]", "values": [{"measurement": "% Inhibition", "setting": "GTase; [1]", "result": 94.5, "unit": "%"}, {"measurement": "Optical density of reaction system", "setting": "GTase; [2]", "result": 0.03}]}
{"smiles": "Cc1c(C)c2c(c(C)c1OP(=O)(O)OC1=C(O)C(C(O)CO)OC1=O)CCC(C)(CCCC(C)CCCC(C)CCCC(C)C)O2", "note": "(centres unmarked) [Substance 6]", "values": [{"measurement": "% Inhibition", "setting": "GTase; [1]", "result": 95.8, "unit": "%"}, {"measurement": "Optical density of reaction system", "setting": "GTase; [2]", "result": 0.02}]}
